Measurements from patent US9060529B2, “Method for treatment of lacto-N-biose-containing solution” (Morinaga Milk Industry Co., Ltd., priority 2010, dated 2015).

What was measured:
[1] = Test Example 1: effect of pH on stability of LNB upon heating (2% LNB in buffer, TLC of decomposed products); type: physicochemical; details: 90° C. for 60 minutes
Protocol: Samples of the LNB powder prepared in the above Production Example 1 were dissolved at a concentration of 2% (by mass, this also applies to all subsequent concentration values) in a 0.1 M citrate buffer solution (pH: 3.0 to 6.0), a 0.1 M phosphate buffer solution (pH: 6.0 to 8.0) or a 0.1 M glycine buffer solution (pH: 8.5 to 10.5), thus preparing samples (liquid compositions containing LNB) 1 to 16 having pH values at intervals of 0.5 across the entire pH range mentioned above.
A 5 mL sample of each of the prepared samples 1 to 16 was dispensed into a test tube and heated at 90° C. for 60 minutes.
Each of the heated samples was cooled to 15° C., and 1 μL was then spotted onto a silica gel thin layer chromatography (TLC) plate. The plate was developed using an 80% acetonitrile solvent, and was then immersed in a 5% sulfuric acid solution and colorized by heating in an oven. The existence or absence of decomposed or denatured products (N-acetylglucosamine dehydrate and galactose) and the amount of those decomposed or denatured products were evaluated visually to determine whether or not decomposition had occurred, and if so, the extent of that decomposition.

[2] = Test Example 2: effect of heating temperature and time on stability of LNB in neutral liquid composition (TLC); type: physicochemical; details: pH 7.0; 90° C. for 0-60 minutes or 65-88° C. for 60 minutes
Protocol: The LNB powder prepared in the above Production Example 1 was dissolved at a concentration of 2% in a 0.1 M phosphate buffer of pH 7.0 to prepare a sample (liquid composition containing LNB).
5 mL samples of the prepared sample were dispensed into test tubes, which were heated at 90° C. for 0, 10, 20, 30, 40, 50 or 60 minutes, or heated at 65, 67, 70, 75, 80, 85 or 88° C. for 60 minutes.
Each of the heated samples was cooled to 15° C., and the same method as that described for Test Example 1 was used to determine whether or not decomposition had occurred, and if so, the extent of that decomposition.

CC(=O)N[C@H]1C(O)O[C@H](CO)[C@@H](O)[C@@H]1O[C@@H]1O[C@H](CO)[C@H](O)[C@H](O)[C@H]1O (stereo partly drawn) [LNB, Lacto-N-biose]
stability of the LNB upon heating (decomposition by TLC) ([1]; pH 5.5 or less, particularly 5.0 or less): stable and underwent almost no decomposition
stability of the LNB upon heating (decomposition by TLC) ([1]; pH 6.0 or higher, particularly 7.0 or higher): significant amounts of decomposed or denatured products were observed
stability of LNB (decomposition by TLC) [2]: decomposed or denatured products were detected under all of the different heat treatment conditions
